Source: ChEMBL document CHEMBL3272144, “Application of the Free-Wilson technique to structurally related series of homologues. Quantitative structure-activity relationship studies of narcotic analgetics” (1977)

organism: Mus musculus; assay: Analgesic activity in mouse by hot-plate method; assay type: functional

Compound	log(1/C)
CC[C@H]1C2Cc3ccc(O)cc3[C@@]1(CC)CCN2C (stereo in doubt; 30)	2.35
CCC[C@@]12CCN(C)C(Cc3ccc(O)cc31)C2 (mixture of isomers)	2.43
C[C@H]1C2Cc3ccccc3[C@@]1(O)CCN2C (mixture of isomers)	0.75
CC[C@@]12CCN(C)C(Cc3ccc(O)cc31)[C@H]2O (mixture of isomers)	1.67
CC[C@@H]1C2Cc3ccc(O)cc3[C@@]1(C)CCN2C (mixture of isomers)	3.07
COc1ccc2c(c1)[C@@]1(C)CCN(C)C(C2)[C@]1(C)O (mixture of isomers)	1.65
CC[C@@]12CCN(C)C(Cc3ccc(OC)cc31)[C@@H]2OC(C)=O (mixture of isomers)	1.48
C[C@H]1[C@H]2Cc3ccc(O)cc3[C@@]1(C)CCN2CC1CC1 (racemic)	1.37
CN1CC[C@]2(C)c3ccccc3CC1[C@@]2(C)O (mixture of isomers)	0.68
CCCCC[C@@]12CCN(C)C(Cc3ccc(O)cc31)C2 (mixture of isomers)	1.96
COc1ccc2c(c1)[C@@]1(C)CCN(C)C(C2)[C@@]1(C)O	1.48
COc1ccc2c(c1)[C@@]1(C)CCN(CCc3ccccc3)C(C2)[C@@H]1C	2.66
CCC[C@@H]1C2Cc3ccc(O)cc3[C@@]1(CCC)CCN2C (mixture of isomers)	2.88
CC[C@@]12CCN(C)C(Cc3ccc(OC(C)=O)cc31)[C@]2(C)OC(C)=O (mixture of isomers)	2.82
C[C@H]1C2Cc3ccc(OC(=O)c4cccnc4)cc3[C@@]1(C)CCN2CCc1ccccc1	3.68
C[C@H]1C2Cc3ccccc3[C@@]1(C)CCN2CCC(=O)c1ccccc1 (mixture of isomers)	1.93
CC[C@@]12CCN(C)C(Cc3ccc(O)cc31)[C@@]2(C)O (mixture of isomers)	2.61
CC[C@@]12CCN(C)C(Cc3ccc(O)cc31)[C@H]2C	3.92
CCC[C@@]12CCN(C)C(Cc3ccc(O)cc31)[C@@H]2C (stereo in doubt; 25)	2.57
CN1CC[C@]2(C)c3cc(O)ccc3CC1[C@@H]2O (mixture of isomers)	0.9
CC[C@@H]1C2Cc3ccccc3[C@@]1(CC)CCN2C (mixture of isomers)	1.8
CCC(=O)Oc1ccc2c(c1)[C@@]1(C)CCN(C)C(C2)C1 (mixture of isomers)	1.98

Compound	log(1/C)
C[C@H]1C2Cc3ccc(O)cc3[C@@]1(C)CCN2CCc1ccccc1 (stereo in doubt; 2)	3.83
CCC[C@@]12CCN(C)C(Cc3ccccc31)[C@@H]2C (mixture of isomers)	1.42
CN1CC[C@H]2CC1Cc1ccc(O)cc12 (stereo in doubt; 46)	1.72
C[C@]1(O)C2Cc3ccc(O)cc3[C@@]1(C)CCN2CCc1ccccc1 (mixture of isomers)	2.05
CN1CC[C@]2(C)c3ccccc3CC1[C@@H]2O (mixture of isomers)	0.97
C=CC#CCN1CC[C@]2(CC)c3cc(O)ccc3CC1[C@@H]2CC (stereo in doubt; 72)	3.7
C[C@H]1C2Cc3ccc(O)cc3[C@@]1(C)CCN2CCc1ccccc1 (stereo in doubt; 87)	2.05
COc1ccc2c(c1)[C@@]1(c3ccccc3)CCN(C)C(C2)[C@H]1C	2.14
CC[C@@]12CCN(C)C(Cc3ccc(O)cc31)[C@@H]2C (mixture of isomers)	2.06
CC[C@H]1C2Cc3ccc(O)cc3[C@@]1(C)CCN2C (stereo in doubt; 97)	1.2
CC[C@H]1C2Cc3ccc(OC)cc3[C@@]1(CC)CCN2C (stereo in doubt; 42)	1.81
CC[C@H]1C2Cc3ccc(O)cc3[C@@]1(C)CCN2C (stereo in doubt; 21)	2.62
CC[C@H]1C2Cc3ccc(OC(C)=O)cc3[C@@]1(CC)CCN2C (mixture of isomers)	2.36
CC(=O)O[C@H]1C2Cc3ccccc3[C@@]1(C)CCN2C (mixture of isomers)	1.37
CN1CC[C@H]2CC1Cc1ccccc12 (mixture of isomers)	1.3
CCC[C@@]12CCN(C)C(Cc3ccc(O)cc31)[C@H]2C (mixture of isomers)	3.45
CC(C)=CCN1CC[C@]2(C)c3cc(O)ccc3CC1[C@H]2C	1.7
C[C@@H]1C2Cc3ccccc3[C@@]1(C)CCN2C (mixture of isomers)	1.82
COc1ccc2c(c1)[C@@]1(C)CCN(C)C(C2)C1 (mixture of isomers)	1.64
CC[C@@]12CCN(CCc3ccccc3)C(Cc3ccc(O)cc31)C2 (mixture of isomers)	3.66
C[C@H]1C2Cc3ccc(F)cc3[C@@]1(C)CCN2C (mixture of isomers)	1.08
CCCCCC[C@@]12CCN(C)C(Cc3ccc(O)cc31)[C@H]2CO (mixture of isomers)	1.53

Compound	log(1/C)
CCC[C@@]12CCN(CCc3ccccc3)C(Cc3ccc(O)cc31)[C@@H]2C (mixture of isomers)	2.92
C[C@H]1C2Cc3ccccc3[C@@]1(C)CCN2C (mixture of isomers)	1.27
CC[C@@]12CCN(C)C(Cc3ccc(O)cc31)[C@]2(C)OC(C)=O (mixture of isomers)	2.78
CN1CC[C@]2(C)c3cc(O)ccc3CC1[C@]2(C)O (mixture of isomers)	1.89
C[C@H]1C2Cc3ccc(OC(=O)c4cccnc4)cc3[C@@]1(C)CCN2CC1CC1 (mixture of isomers)	2.59
C[C@@H]1C2Cc3ccc(O)cc3[C@@]1(c1ccccc1)CCN2C (stereo in doubt; 8)	3.26
CCC(=O)O[C@@]12CCN(C)C(Cc3ccccc31)C2 (mixture of isomers)	1.43
CC[C@@]12CCN(C)C(Cc3ccc(OC)cc31)[C@@H]2O (mixture of isomers)	0.99
C=CC#CCN1CC[C@]2(CC)c3cc(O)ccc3CC1[C@@H]2CC (stereo in doubt; 90)	1.79
CC[C@H]1C2Cc3ccc(OC(=O)c4cccnc4)cc3[C@@]1(CC)CCN2C (mixture of isomers)	1.54
CCCC(=O)Oc1ccc2c(c1)[C@@]1(C)CCN(C)C(C2)C1 (mixture of isomers)	1.92
CN1CC[C@]2(C)c3cc(O)ccc3CC1[C@@]2(C)O (mixture of isomers)	2.15
CC[C@@]12CCN(C)C(Cc3ccc(O)cc31)C2 (stereo in doubt; 20)	2.62
C[C@@H]1C2Cc3ccc(O)cc3[C@@]1(C)CCN2C (stereo in doubt; 92)	1.6
CC[C@@]12CCN(C)C(Cc3ccc(OC(C)=O)cc31)[C@@H]2OC(C)=O (mixture of isomers)	2.53
CCC[C@@]12CCN(C)C(Cc3ccccc31)[C@H]2C (mixture of isomers)	1.76
CC[C@H]1C2Cc3ccc(O)cc3[C@@]1(CC)CCN2CCc1ccccc1 (mixture of isomers)	2.61
CN1CC[C@@H]2c3cc(O)ccc3CC1[C@H]2CO (mixture of isomers)	1.62
CCCCC(=O)Oc1ccc2c(c1)[C@@]1(c3ccccc3)CCN(C)C(C2)[C@H]1C	2.78
CC[C@H]1C2Cc3ccc(O)cc3[C@@]1(CC)CCN2C (stereo in doubt; 93)	1.51
CC(=O)Oc1ccc2c(c1)[C@@]1(C)CCN(C)C(C2)[C@@H]1C (mixture of isomers)	2.72
C[C@@]12CCN(CCc3ccccc3)C(Cc3ccccc31)C2 (mixture of isomers)	1.26

Compound	log(1/C)
CN1CC[C@@]2(C)CC1Cc1ccc(O)cc12 (stereo in doubt; 31)	2.16
CC[C@@H]1C2Cc3ccc(O)cc3[C@@]1(CC)CCN2C (stereo in doubt; 95)	1.31
CC(C)=CCN1CC[C@]2(C)c3cc(O)ccc3CC1[C@@H]2C	1.53
CCC[C@@]12CCN(C)C(Cc3ccc(O)cc31)[C@@H]2C (stereo in doubt; 94)	1.38
COc1ccc2c(c1)[C@@]1(C)CCN(C)C(C2)[C@H]1O (mixture of isomers)	1.14
CC[C@@]1(O)C2Cc3ccc(OC)cc3[C@@]1(C)CCN2C (mixture of isomers)	1.87
CN1CC[C@@]2(c3ccccc3)CC1Cc1ccccc12 (stereo in doubt; 89)	1.87
CC(=O)Oc1ccc2c(c1)[C@@]1(C)CCN(C)C(C2)C1 (mixture of isomers)	1.98
c1ccc2c(c1)CC1C[C@@H]2CCN1 (mixture of isomers)	1.31
CN1CC[C@]2(C)c3ccccc3CC1[C@]2(C)O (mixture of isomers)	1.16
C[C@H]1C2Cc3ccc(Cl)cc3[C@@]1(C)CCN2C (mixture of isomers)	0.83
C[C@@]12CCNC(Cc3ccc(O)cc31)[C@H]2O (mixture of isomers)	0.88
CC[C@@]12CCN(C)C(Cc3ccc(O)cc31)C2 (stereo in doubt; 99)	1.03
C[C@H]1C2Cc3ccc(O)cc3[C@@]1(C)CCN2C	2.71
COc1ccc2c(c1)[C@@]1(C)CCN(C)C(C2)[C@@H]1C	1.87
C[C@@H]1C2CCN(CCc3ccccc3)C1Cc1ccc(O)cc12 (mixture of isomers)	3.21
CC(=O)Oc1ccc2c(c1)[C@@]1(C)CCN(CCc3ccccc3)C(C2)[C@@H]1C (mixture of isomers)	3.61
CC(=O)Oc1ccc2c(c1)[C@@]1(C)CCN(C)C(C2)[C@]1(C)OC(C)=O (mixture of isomers)	2.66
CC(=O)O[C@@]12CCN(C)C(Cc3ccccc31)C2 (mixture of isomers)	1.64
CCCC[C@@]12CCN(C)C(Cc3ccc(O)cc31)C2 (mixture of isomers)	2.17
C[C@@H]1C2Cc3ccc(O)cc3[C@@]1(C)CCN2C (stereo in doubt; 9)	3.22
CC(=O)Oc1ccc2c(c1)[C@H]1CCN(C)C(C2)C1 (mixture of isomers)	1.57
